Measured values: ChEMBL document CHEMBL4257451, “Synergism of fused bicyclic 2-aminothiazolyl compounds with polymyxin B against Klebsiella pneumoniae” (Medchemcomm, 2017)
Calls of active or inactive are those of the source. The calls are words filed in the database; no cut-off is given here.

Key:
[1] = system: Acinetobacter baumannii; assay: Synergistic antibacterial activity against Acinetobacter baumannii isolate 2 assessed as polymixin B MIC at 4 ug/ml by broth microdilution method (reference value: 1 ug/ml); type: functional
[2] = system: Klebsiella pneumoniae; assay: Bactericidal activity against Klebsiella pneumoniae SIPI-KPN-1712 at 4 ug/ml up to 24 hrs by time kill assay; type: ADME, organism-based
[3] = system: Pseudomonas aeruginosa; assay: Growth inhibition of Pseudomonas aeruginosa ATCC 27853 by broth microdilution method; type: organism-based
[4] = system: Escherichia coli; assay: Synergistic antibacterial activity against Escherichia coli isolate 2945 in presence of polymixin B by broth microdilution method (reference value: 0.125 ug/ml); type: functional
[5] = system: Pseudomonas aeruginosa; assay: Synergistic antibacterial activity against Pseudomonas aeruginosa isolate 1292 assessed as polymixin B MIC at 4 ug/ml by broth microdilution method (reference value: 2 ug/ml); type: functional
[6] = system: Klebsiella pneumoniae; assay: Synergistic antibacterial activity against Klebsiella pneumoniae KPN-2967 assessed as fold reduction in polymixin B MIC by broth microdilution method relative to polymixin B alone; type: functional
[7] = system: Klebsiella pneumoniae; assay: Synergistic antibacterial activity against Klebsiella pneumoniae KPN-2677 in presence of polymixin B by broth microdilution method; type: functional
[8] = system: Klebsiella pneumoniae; assay: Synergistic antibacterial activity against Klebsiella pneumoniae KPN-2677 assessed as fold reduction in polymixin B MIC by broth microdilution method relative to polymixin B alone; type: functional
[9] = system: Acinetobacter baumannii; assay: Growth inhibition of Acinetobacter baumannii isolate 1 by broth microdilution method; type: organism-based
[10] = system: Acinetobacter baumannii; assay: Synergistic antibacterial activity against Acinetobacter baumannii isolate 1 in presence of polymixin B by broth microdilution method; type: functional
[11] = system: Klebsiella pneumoniae; assay: Synergistic antibacterial activity against Klebsiella pneumoniae KPN-2967 assessed as polymixin B MIC at 4 ug/ml by broth microdilution method (reference value: 0.5 ug/ml); type: functional
[12] = system: Acinetobacter baumannii; assay: Synergistic antibacterial activity against Acinetobacter baumannii isolate 1 assessed as polymixin B MIC at 4 ug/ml by broth microdilution method (reference value: 2 ug/ml); type: functional
[13] = system: Klebsiella pneumoniae; assay: Growth inhibition of Klebsiella pneumoniae KPN-2967 by broth microdilution method; type: organism-based; details: in vivo
[14] = system: Escherichia coli; assay: Growth inhibition of Escherichia coli isolate 2945 by broth microdilution method; type: organism-based
[15] = system: Pseudomonas aeruginosa; assay: Synergistic antibacterial activity against Pseudomonas aeruginosa isolate 1399 in presence of polymixin B by broth microdilution method (reference value: 1 ug/ml); type: functional
[16] = system: Acinetobacter baumannii; assay: Synergistic antibacterial activity against Acinetobacter baumannii isolate 2 in presence of polymixin B by broth microdilution method; type: functional
[17] = system: Acinetobacter baumannii; assay: Synergistic antibacterial activity against Acinetobacter baumannii ATCC 19606 assessed as polymixin B MIC at 4 ug/ml by broth microdilution method (reference value: 0.5 ug/ml); type: functional; details: ATCC 19606 = CIP 70.34 = JCM 6841
[18] = system: Klebsiella pneumoniae; assay: Synergistic antibacterial activity against Klebsiella pneumoniae SIPI-KPN-1712 assessed as fold reduction in polymixin B MIC at 4 ug/ml by broth microdilution method relative to polymixin B alone; type: functional
[19] = system: Klebsiella pneumoniae; assay: Growth inhibition of Klebsiella pneumoniae SIPI-KPN-1712 by broth microdilution method; type: organism-based; details: in vitro
[20] = system: Pseudomonas aeruginosa; assay: Growth inhibition of Pseudomonas aeruginosa isolate 1292 by broth microdilution method; type: organism-based; details: in vivo
[21] = system: Acinetobacter baumannii; assay: Synergistic antibacterial activity against Acinetobacter baumannii isolate 3 assessed as polymixin B MIC at 4 ug/ml by broth microdilution method (reference value: 0.5 ug/ml); type: functional
[22] = system: Klebsiella pneumoniae; assay: Synergistic antibacterial activity against Klebsiella pneumoniae SIPI-KPN-1712 assessed as polymixin B MIC at 4 ug/ml by broth microdilution method (reference value: 32 ug/ml); type: functional
[23] = system: Pseudomonas aeruginosa; assay: Synergistic antibacterial activity against Pseudomonas aeruginosa isolate 1292 in presence of polymixin B by broth microdilution method (reference value: 2 ug/ml); type: functional
[24] = system: Klebsiella pneumoniae; assay: Synergistic antibacterial activity against Klebsiella pneumoniae SIPI-KPN-1712 assessed as fold reduction in polymixin B MIC at 16 ug/ml by broth microdilution method relative to polymixin B alone; type: functional
[25] = system: Escherichia coli; assay: Growth inhibition of Escherichia coli ATCC 25922 by broth microdilution method; type: organism-based
[26] = system: Escherichia coli; assay: Synergistic antibacterial activity against Escherichia coli ATCC 25922 in presence of polymixin B by broth microdilution method; type: functional
[27] = system: Klebsiella pneumoniae; assay: Synergistic bactericidal activity against Klebsiella pneumoniae SIPI-KPN-1712 at 4 ug/ml in presence of 2 to 4 ug/ml polymixin B up to 24 hrs by time kill assay; type: functional, organism-based
[28] = system: Pseudomonas aeruginosa; assay: Synergistic antibacterial activity against Pseudomonas aeruginosa isolate 1399 assessed as polymixin B MIC at 4 ug/ml by broth microdilution method (reference value: 1 ug/ml); type: functional
[29] = system: Acinetobacter baumannii; assay: Synergistic antibacterial activity against Acinetobacter baumannii isolate 4 in presence of polymixin B by broth microdilution method; type: functional
[30] = system: Acinetobacter baumannii; assay: Growth inhibition of Acinetobacter baumannii isolate 4 by broth microdilution method; type: organism-based
[31] = system: Acinetobacter baumannii; assay: Growth inhibition of Acinetobacter baumannii isolate 3 by broth microdilution method; type: organism-based
[32] = system: Escherichia coli; assay: Synergistic antibacterial activity against Escherichia coli ATCC 25922 assessed as polymixin B MIC at 4 ug/ml by broth microdilution method (reference value: 0.25 ug/ml); type: functional
[33] = system: Klebsiella pneumoniae; assay: Synergistic antibacterial activity against Klebsiella pneumoniae SIPI-KPN-1712 assessed as fold reduction in polymixin B MIC at 8 ug/ml by broth microdilution method relative to polymixin B alone; type: functional
[34] = system: Klebsiella pneumoniae; assay: Synergistic bactericidal activity against Klebsiella pneumoniae SIPI-KPN-1712 at 4 ug/ml in presence of 0.5 to 1 ug/ml polymixin B up to 24 hrs by time kill assay; type: functional, organism-based
[35] = system: Acinetobacter baumannii; assay: Synergistic antibacterial activity against Acinetobacter baumannii isolate 3 in presence of polymixin B by broth microdilution method; type: functional
[36] = system: Klebsiella pneumoniae; assay: Synergistic antibacterial activity against Klebsiella pneumoniae KPN-2967 in presence of polymixin B by broth microdilution method; type: functional
[37] = system: Klebsiella pneumoniae; assay: Synergistic antibacterial activity against Klebsiella pneumoniae KPN-2677 assessed as polymixin B MIC at 4 ug/ml by broth microdilution method (reference value: 0.5 ug/ml); type: functional
[38] = system: Klebsiella pneumoniae; assay: Synergistic antibacterial activity against Klebsiella pneumoniae SIPI-KPN-1712 assessed as fold reduction in polymixin B MIC at 2 ug/ml by broth microdilution method relative to polymixin B alone; type: functional
[39] = system: Pseudomonas aeruginosa; assay: Synergistic antibacterial activity against Pseudomonas aeruginosa ATCC 27853 in presence of polymixin B by broth microdilution method (reference value: 1 ug/ml); type: functional
[40] = system: Acinetobacter baumannii; assay: Growth inhibition of Acinetobacter baumannii ATCC 19606 by broth microdilution method; type: organism-based, ATCC 19606 = CIP 70.34 = JCM 6841
[41] = system: Acinetobacter baumannii; assay: Synergistic antibacterial activity against Acinetobacter baumannii isolate 4 assessed as polymixin B MIC at 4 ug/ml by broth microdilution method (reference value: 0.5 ug/ml); type: functional
[42] = system: Pseudomonas aeruginosa; assay: Synergistic antibacterial activity against Pseudomonas aeruginosa ATCC 27853 assessed as polymixin B MIC at 4 ug/ml by broth microdilution method (reference value: 1 ug/ml); type: functional
[43] = system: Acinetobacter baumannii; assay: Synergistic antibacterial activity against Acinetobacter baumannii ATCC 19606 in presence of polymixin B by broth microdilution method; type: functional, ATCC 19606 = CIP 70.34 = JCM 6841
[44] = system: Klebsiella pneumoniae; assay: Synergistic antibacterial activity against Klebsiella pneumoniae SIPI-KPN-1712 assessed as fractional Inhibitory concentration index in presence of polymixin B at 2 ug/ml by broth microdilution method; type: functional
[45] = system: Klebsiella pneumoniae; assay: Synergistic antibacterial activity against Klebsiella pneumoniae SIPI-KPN-1712 assessed as fold reduction in polymixin B MIC at 1 ug/ml by broth microdilution method relative to polymixin B alone; type: functional
[46] = system: Pseudomonas aeruginosa; assay: Growth inhibition of Pseudomonas aeruginosa isolate 1399 by broth microdilution method; type: organism-based; details: in vivo
[47] = system: Escherichia coli; assay: Synergistic antibacterial activity against Escherichia coli isolate 2944 assessed as polymixin B MIC at 4 ug/ml by broth microdilution method (reference value: 0.125 ug/ml); type: functional
[48] = system: Klebsiella pneumoniae; assay: Growth inhibition of Klebsiella pneumoniae KPN-2677 by broth microdilution method; type: organism-based
[49] = system: Acinetobacter baumannii; assay: Growth inhibition of Acinetobacter baumannii isolate 2 by broth microdilution method; type: organism-based
[50] = system: Escherichia coli; assay: Synergistic antibacterial activity against Escherichia coli isolate 2945 assessed as polymixin B MIC at 4 ug/ml by broth microdilution method (reference value: 0.125 ug/ml); type: functional
[51] = system: Escherichia coli; assay: Growth inhibition of Escherichia coli isolate 2944 by broth microdilution method; type: organism-based
[52] = system: Escherichia coli; assay: Synergistic antibacterial activity against Escherichia coli isolate 2944 in presence of polymixin B by broth microdilution method (reference value: 0.125 ug/ml); type: functional

- MIC [1]: 1 µg/mL
- MIC [5]: 2 µg/mL
- MIC [11]: 0.5 µg/mL
- MIC [12]: 2 µg/mL
- MIC [17]: 0.5 µg/mL
- MIC [21]: 0.5 µg/mL
- MIC [22]: 0.5 µg/mL
- MIC [28]: 1 µg/mL
- MIC [32]: 0.25 µg/mL
- MIC [37]: 0.5 µg/mL
- MIC [41]: 0.5 µg/mL
- MIC [42]: 1 µg/mL
- MIC [47]: 0.125 µg/mL
- MIC [50]: 0.125 µg/mL
Compound: OC1CCCc2nc(Nc3ccc(Cl)cc3)sc21 (configuration not stated)
- Activity [2]: Non-Toxic
- MIC [3]: > 64 µg/mL
- fractional inhibitory concentration index (FICI) [4]: 0.28
- fold change (FC) [6]: 8
- fractional inhibitory concentration index (FICI) [7]: 0.06
- fold change (FC) [8]: 32
- MIC [9]: > 64 µg/mL
- fractional inhibitory concentration index (FICI) [10]: 0.53
- MIC [13]: > 64 µg/mL
- MIC [14]: > 64 µg/mL
- fractional inhibitory concentration index (FICI) [15]: 0.53
- fractional inhibitory concentration index (FICI) [16]: 0.28
- fold change (FC) [18]: 64
- MIC [19]: > 128 µg/mL
- MIC [20]: > 64 µg/mL
- fractional inhibitory concentration index (FICI) [23]: 1.03
- fold change (FC) [24]: 128
- MIC [25]: > 64 µg/mL
- fractional inhibitory concentration index (FICI) [26]: 0.53
- Activity [27]: Active
- fractional inhibitory concentration index (FICI) [29]: 0.53
- MIC [30]: > 64 µg/mL
- MIC [31]: > 64 µg/mL
- fold change (FC) [33]: 128
- Activity [34]: inactive
- fractional inhibitory concentration index (FICI) [35]: 0.53
- fractional inhibitory concentration index (FICI) [36]: 0.16
- fold change (FC) [38]: 16
- fractional inhibitory concentration index (FICI) [39]: 1.03
- MIC [40]: > 64 µg/mL
- fractional inhibitory concentration index (FICI) [43]: 0.53
- fractional inhibitory concentration index (FICI) [44]: 0.05
- fold change (FC) [45]: 4
- MIC [46]: > 64 µg/mL
- MIC [48]: > 64 µg/mL
- MIC [49]: > 64 µg/mL
- MIC [51]: > 64 µg/mL
- fractional inhibitory concentration index (FICI) [52]: 0.28
